Where two headings read alike, the source gives them in different places. Values belong to the molecule of their own block, whether it stands above or below them.
Columns and labels:
Ba/F3 LMNA-NTRK1-G595R = target: T1, Ba/F3 LMNA-NTRK1-G595R (Homo sapiens, UniProt P04629, G595R, cells depend on it); assay: In vitro cell proliferation inhibition (MTT); type: cell-based, murine; conditions: 72 h, read-out: IC50 Ba/F3 LMNA-NTRK1-G595R
T1 construct: fused on or other part: P02545 (Prelamin-A/C)
Method: (§1) Cells in the logarithmic growth phase were harvested and counted using a […]. The cell suspension with a certain density was pipetted uniformly and seeded into a 96-well plate with each well of 100 μL, and shaken to make the cells uniformly disperse into the wells. 100 μL of compound solution with certain concentration gradient was added into each well, and 3 duplicate wells were set for each concentration. The plate was cultured in a CO2 incubator at 37° C. for 72 h. 20 μL of MTT working solution (5 mg/mL) was added into each well, and the plate was placed at 37° C. for 4 h, and centrifuged at 1000 rpm for 5 min by a plate centrifuge. After 180 μL of culture medium was discarded, the plate was added with 150 μL of DMSO, and mixed well with a microplate shaker, the plate bottom was wiped, and optical density (OD) at 550 nm was detected with a microplate reader.

Ba/F3 ETV6-NTRK2 = target: T2, Ba/F3 ETV6-NTRK2 (Homo sapiens, UniProt Q16620); assay: In vitro cell proliferation inhibition (MTT); type: cell-based, murine
T2 construct: fused on or other part: P41212 (Transcription factor ETV6)
Method: as §1

Ba/F3 ETV6-NTRK3-G623R = target: T3, Ba/F3 ETV6-NTRK3-G623R (Homo sapiens, UniProt Q16288, G623R, cells depend on it); assay: In vitro cell proliferation inhibition (MTT); type: cell-based, murine; conditions: 72 h, read-out: IC50 Ba/F3 ETV6-NTRK3-G623R
T3 construct: fused on or other part: P41212 (Transcription factor ETV6)
Method: as §1

Ba/F3 LMNA-NTRK1-G667C = target: T4, Ba/F3 LMNA-NTRK1-G667C (Homo sapiens, UniProt P04629, G667C, cells depend on it); assay: In vitro cell proliferation inhibition (MTT); type: cell-based, murine; conditions: 72 h, read-out: IC50 Ba/F3 LMNA-NTRK1-G667C
T4 construct: fused on or other part: P02545 (Prelamin-A/C)
Method: as §1

Ba/F3 LMNA-NTRK1 = target: T5, Ba/F3 LMNA-NTRK1 (Homo sapiens, UniProt P04629); assay: In vitro cell proliferation inhibition (MTT); type: cell-based, murine; conditions: 72 h, read-out: IC50 Ba/F3 LMNA-NTRK1
T5 construct: fused on or other part: P02545 (Prelamin-A/C)
Method: as §1

Ba/F3 ETV6-NTRK3-G696A = target: T6, Ba/F3 ETV6-NTRK3-G696A (Homo sapiens, UniProt Q16288, G696A, cells depend on it); assay: In vitro cell proliferation inhibition (MTT); type: cell-based, murine; conditions: 72 h, read-out: IC50 Ba/F3 ETV6-NTRK3-G696A
T6 construct: fused on or other part: P41212 (Transcription factor ETV6)
Method: • Source of 6 kinds of cell lines for the test: KYinno Biotechnology (Beijing) Co., Ltd. • Cell type: murine B cells • Culture medium: RPMI-1640+10% FB S 2. Test Method
as §1

ALK = target: T7, ALK (Homo sapiens, UniProt Q9UM73); assay: Kinase inhibition assay with fluorescein labeled peptide, ALK; type: biochemical
T7 construct: purchased Carna 08-105
Method: (§2) Compounds were diluted to a certain concentration in DMSO with 4-fold gradients. The compound with a certain concentration, an enzyme solution and DMSO were added into a 384-well plate, and the plate was incubated at room temperature for 10 min. […] The plate was subjected to reading.

[1] = tested on: Ba/F3 LMNA-NTRK1-G595R model; conditions: 100 mg/kg, gavage
Method: (§3) The cells in the logarithmic growth phase were collected and re-suspending in serum-free culture medium to make the cell concentration at […] cells/mL. The cell suspension was added with equal volume of Matrigel to make the final cell concentration at 3×10^7-5×10^7 cells/mL. The animal model was established by subcutaneously inoculating 0.1 mL of tumor cell suspension in the axilla of the forelimb of NuNu mice (female, 4-6 weeks, Beijing Vital River Laboratory Animal Technology Co., Ltd.) in an amount of 3×10^6-5×10^6 cells/mouse.
(§4) The maximum and the minimum tumor diameters of the xenografts in nude mice were measured using a vernier caliper, and the tumor volume (TV) was calculated according to the formula: V=½×a×b^2, where a and b represent the maximum and minimum diameters of the tumor mass, respectively. Nude mice with appropriate tumor volume were selected and the mice were evenly divided into 7 groups of 6 mice (100-200 mm^3) by tumor volume using a random number method.
(§5) Tumor diameters were measured twice weekly and tumor volume was calculated. […] (where Ti represents the mean tumor volume of a certain administration group on a certain day; TO represents the mean tumor volume of the administration group at the start of administration, Vi represents the mean tumor volume of the vehicle control group on a certain day (same day as Ti) and V0 represents the mean tumor volume of the vehicle control group at the start of administration); • Tumor inhibition rate: at the end of the test, the animals were executed by removing the cervical vertebrae.

[2] = tested on: Ba/F3 LMNA-NTRK1-G667C model; conditions: gavage
Method: as §3, §4, §5

ROS1 = target: T8, ROS1 (Homo sapiens, UniProt P08922); assay: Kinase inhibition assay with fluorescein labeled peptide, ROS1; type: biochemical
T8 construct: purchased Carna 08-163
Method: as §2

TRKA(G667C) = target: T9, TRKA(G667C) (Homo sapiens, UniProt P04629, G667C); assay: HTRF kinase inhibition assay, TRKA(G667C); type: biochemical
T9 construct: purchased signalchem
Method: (§6) The compound to be tested with a certain concentration gradient and an enzyme solution were successively added into a plate (kinase buffer (1× kinase buffer (Cisbio, Cat #62EZBFDD), pH 7.5; 5 mM MgCl2, 1 mM DTT) was added into negative control wells), and the compound plate was centrifuged at 1000 rpm for 30 seconds. The plate was sealed and incubated in a Constant Temperature Incubator at 25° C. for 30 min. A substrate solution containing TK-Sub-biotin (Cisbio, Cat #61TKOBL) and ATP (Sigma, Cat #R0441) was prepared, the substrate solution was added into a 384-well plate, and the plate was centrifuged at 1000 rpm for 30 seconds. The plate was sealed and incubated in a Constant Temperature Incubator at 25° C. for 60 min.
(§7) TK antibody and XL665 were diluted, mixed and added into the assay plate, and the plate was centrifuged at 1000 rpm for 30 seconds. The plate was sealed and incubated in a Constant Temperature incubator Incubator at 25° C. for 60 min. The assay plate was placed on an Envision reader for reading. (HTRF 665/615 ratio: signal value at 665 nm/signal value at 615 nm) Inhibition=(rationegative control well−ratiocompound well)/(rationegative control well−ratioenzyme-free control well)×100% 1.3 Data Analysis and Curve Fitting
(§8) Data were fitted in XLFit excel add-in version 5.4.0.8 to obtain IC50 values.

TRKA(G595R) = target: T10, TRKA(G595R) (Homo sapiens, UniProt P04629, G595R); assay: HTRF kinase inhibition assay, TRKA(G595R); type: biochemical
T10 construct: purchased signalchem
Method: as §6, §7, §8

TRKC(G696A) = target: T11, TRKC(G696A) (Homo sapiens, UniProt Q16288, G696A); assay: HTRF kinase inhibition assay, TRKC(G696A); type: biochemical
T11 construct: purchased Bioduro
Method: as §6
(§9) TK antibody and XL665 were diluted, mixed and added into the assay plate, and the plate was centrifuged at 1000 rpm for 30 seconds. The plate was sealed and incubated in a Constant Temperature incubator Incubator at 25° C. for 60 min. The assay plate was placed on an Envision reader for reading.
as §8

TRKC = target: T12, TRKC (Homo sapiens, UniProt Q16288); assay: HTRF kinase inhibition assay, TRKC; type: biochemical
T12 construct: purchased Bioduro
Method: as §6, §7, §8

TRKA = target: T13, TRKA (Homo sapiens, UniProt P04629); assay: HTRF kinase inhibition assay, TRKA; type: biochemical
T13 construct: purchased Bioduro
Method: as §6, §7, §8

TRKC(G623R) = target: T14, TRKC(G623R) (Homo sapiens, UniProt Q16288, G623R); assay: HTRF kinase inhibition assay, TRKC(G623R); type: biochemical
T14 construct: purchased Bioduro
Method: as §6, §7, §8

TRKB = target: T15, TRKB (Homo sapiens, UniProt Q16620); assay: HTRF kinase inhibition assay, TRKB; type: biochemical
T15 construct: purchased Bioduro
Method: as §6, §9, §8

[3] = 72 h, read-out: IC50 Ba/F3 ETV6-NTRK2

GI50 (Ba/F3 LMNA-NTRK1-G595R): 289 nM
GI50 (Ba/F3 ETV6-NTRK2; [3]): 6.09 nM
GI50 (Ba/F3 ETV6-NTRK3-G623R): 24.8 nM
GI50 (Ba/F3 LMNA-NTRK1-G667C): 307 nM
GI50 (Ba/F3 LMNA-NTRK1): 1.6 nM
GI50 (Ba/F3 ETV6-NTRK3-G696A): 258 nM
SMILES: CCN1CCN(c2ccc(C(=O)Nc3cnn4ccc(N5CCC[C@@H]5c5cc(F)ccc5F)nc34)cc2)CC1 [Compound D1]

SMILES: C[C@@H]1CCc2ncc(F)cc2[C@H]2CCCN2c2ccn3ncc(c3n2)C(=O)N1 [LOXO-195, reference compound]
IC50 (ALK): 391 nM
GI50 (Ba/F3 ETV6-NTRK2; [3]): 2.89 nM
GI50 (Ba/F3 ETV6-NTRK3-G623R): 4.54 nM
GI50 (Ba/F3 LMNA-NTRK1-G667C): 112 nM
GI50 (Ba/F3 LMNA-NTRK1): 9.08 nM
GI50 (Ba/F3 ETV6-NTRK3-G696A): 4.5 nM
Number of animals (Survival/total) [1]: (6/6)
Rate of weight gain (%) [1]: 8.59%
TGI (%) [1]: 124.6%
Tumor volume (mm^3) [1]: 66.3 ± 37.1 mm^3
Tumor weight [1]: 0.12 ± 0.06 g
Tumor weight inhibition rate (%) [1]: 76.58%
Number of animals (Survival/total) ([2]; 100 mg/kg): (6/6)
Rate of weight gain (%) ([2]; 100 mg/kg): 2.38%
TGI (%) ([2]; 100 mg/kg): 36.4%
Tumor volume (mm^3) ([2]; 100 mg/kg): 381.2 ± 134.4 mm^3
Tumor weight ([2]; 100 mg/kg): 0.43 ± 0.18 g
Tumor weight inhibition rate (%) ([2]; 100 mg/kg): 21.57%
Number of animals (Survival/total) ([2]; 200 mg/kg): (5/6)
Rate of weight gain (%) ([2]; 200 mg/kg): 7.88%
TGI (%) ([2]; 200 mg/kg): 95.4%
Tumor volume (mm^3) ([2]; 200 mg/kg): 154.5 ± 92.2 mm^3
Tumor weight ([2]; 200 mg/kg): 0.22 ± 0.16 g
Tumor weight inhibition rate (%) ([2]; 200 mg/kg): 59.96%

GI50 (Ba/F3 LMNA-NTRK1-G595R): 0.215 nM
GI50 (Ba/F3 ETV6-NTRK2; [3]): 1.13 nM
GI50 (Ba/F3 ETV6-NTRK3-G623R): 0.237 nM
GI50 (Ba/F3 LMNA-NTRK1-G667C): 1.53 nM
GI50 (Ba/F3 LMNA-NTRK1): 0.635 nM
GI50 (Ba/F3 ETV6-NTRK3-G696A): 0.112 nM
SMILES: C[C@@H](O)C(=O)N1CCC(c2ccc(NC(=O)c3cnn4ccc(N5C[C@@H](F)C[C@@H]5c5cc(F)ccc5F)nc34)cc2)CC1 [Compound 12]

GI50 (Ba/F3 LMNA-NTRK1-G595R): 230 nM
GI50 (Ba/F3 ETV6-NTRK2; [3]): 13.4 nM
GI50 (Ba/F3 ETV6-NTRK3-G623R): 46.5 nM
GI50 (Ba/F3 LMNA-NTRK1-G667C): 42.7 nM
GI50 (Ba/F3 LMNA-NTRK1): 1.03 nM
GI50 (Ba/F3 ETV6-NTRK3-G696A): 202 nM
SMILES: COc1cc(N2CCN(C)CC2)ccc1C(=O)Nc1cnn2ccc(N3CCC[C@@H]3c3cc(F)ccc3F)nc12 [Compound D2]

GI50 (Ba/F3 LMNA-NTRK1-G595R): 0.525 nM
GI50 (Ba/F3 ETV6-NTRK3-G623R): 0.852 nM
GI50 (Ba/F3 LMNA-NTRK1-G667C): 4.93 nM
GI50 (Ba/F3 ETV6-NTRK3-G696A): 0.435 nM
SMILES: O=C(Nc1ccc(N2CCn3c(nnc3C(F)(F)F)C2)cc1)c1cnn2ccc(N3C[C@@H](F)C[C@@H]3c3cc(F)ccc3F)nc12 [Compound 23]

GI50 (Ba/F3 ETV6-NTRK2; read-out: IC50 Ba/F3 ETV6-NTRK2, 72 h): 2.13 nM
SMILES: CN1CCN(c2ccc(C(=O)Nc3n[nH]c4ccc(Cc5cc(F)cc(F)c5)cc34)c(NC3CCOCC3)c2)CC1 [RXDX-101, Entrectinib]

IC50 (ROS1): 0.33 nM
IC50 (TRKA(G667C)): 0.632 nM
IC50 (TRKA(G595R)): < 0.169 nM
IC50 (TRKC(G696A)): 1.2 nM
IC50 (ALK): 30 nM
IC50 (TRKC): 0.901 nM
IC50 (TRKA): 0.405 nM
IC50 (TRKC(G623R)): 0.749 nM
IC50 (TRKB): 1.55 nM
GI50 (Ba/F3 LMNA-NTRK1-G667C): 0.584 nM
SMILES: O=C(Nc1ccc(N2CC[C@H](O)C2)cc1)c1cnn2ccc(N3C[C@@H](F)C[C@@H]3c3cc(F)ccc3F)nc12 [Compound 21]

Reference: US12643906B2, “Fused aza-heterocyclic amide compound and use thereof” (CSPC ZHONGQI PHARMACEUTICAL TECHNOLOGY (SHIJIAZHUANG) CO., …, priority 2020, dated 2026)
